According to patent publication US8247211B2, “Glycopeptide antibiotics” (American Cyanamid Company, priority 2001, dated 2012):
≈ marks a conversion by molar mass, not a printed value.

Legend:
Test in all cases: In vitro antibacterial evaluation: minimum inhibitory concentration (MIC), broth dilution method
Type in all cases: cell-based
Staphylococcus sp. = conditions: broth dilution, 18 hours at 35° C.
How it was run: (§1)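 An MIC is reported for each organism as the least concentration giving inhibition, using broth dilution over 64-0.06 μg/mL with a 5×10^5 CFU/mL inoculum.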

Enterococcus sp. = test system: Enterococcus sp.
How it was run: as §1

Escherichia coli = test system: Escherichia coli
How it was run: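 First, organisms are seeded at 5×10^5 CFU/mL into Muller-Hinton II […]. Next, antibiotic is applied across 64-0.06 μg/mL by broth dilution (NCCLS M7-A2). Finally, the lowest inhibitory concentration is recorded as MIC.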

Streptococcus sp. = test system: Streptococcus sp.
How it was run: as §1

[1] = broth dilution, inoculum 5×10^5 CFU/mL, 18 hours at 35° C.

MIC Coagulase Negative Staphylococcus (GC 4547) (Staphylococcus sp.; 5×10^5 CFU/mL): 4 µg/mL (≈ 2.73 µM)
MIC Coagulase Negative Staphylococcus (GC 4548) (Staphylococcus sp.; 5×10^5 CFU/mL): 2 µg/mL (≈ 1.37 µM)
MIC Coagulase Negative Staphylococcus (GC 4549) (Staphylococcus sp.; 5×10^5 CFU/mL): 2 µg/mL (≈ 1.37 µM)
MIC Coagulase Negative Staphylococcus (GC 4551) (Staphylococcus sp.; 5×10^5 CFU/mL): 8 µg/mL (≈ 5.46 µM)
MIC Coagulase Negative Staphylococcus (GC 6257) (Staphylococcus sp.; 5×10^5 CFU/mL): 2 µg/mL (≈ 1.37 µM)
MIC Staphylococcus aureus (ATCC 29213) (Staphylococcus sp.; 5×10^5 CFU/mL): 4 µg/mL (≈ 2.73 µM)
MIC Staphylococcus aureus (GC 1131) (Staphylococcus sp.; 5×10^5 CFU/mL): 8 µg/mL (≈ 5.46 µM)
MIC Staphylococcus aureus (GC 3051) (Staphylococcus sp.; 5×10^5 CFU/mL): 8 µg/mL (≈ 5.46 µM)
MIC Staphylococcus aureus (GC 3053) (Staphylococcus sp.; 5×10^5 CFU/mL): 8 µg/mL (≈ 5.46 µM)
MIC Staphylococcus aureus (GC 4541) (Staphylococcus sp.; 5×10^5 CFU/mL): 4 µg/mL (≈ 2.73 µM)
MIC Staphylococcus aureus (GC 4542) (Staphylococcus sp.; 5×10^5 CFU/mL): 4 µg/mL (≈ 2.73 µM)
MIC Staphylococcus aureus (GC 4544) (Staphylococcus sp.; 5×10^5 CFU/mL): 8 µg/mL (≈ 5.46 µM)
MIC Staphylococcus aureus (GC 4545) (Staphylococcus sp.; 5×10^5 CFU/mL): 4 µg/mL (≈ 2.73 µM)
MIC Staphylococcus aureus-SMITH (GC 4543) (Staphylococcus sp.; 5×10^5 CFU/mL): 4 µg/mL (≈ 2.73 µM)
MIC Staphylococcus aureus (ATCC 29213) (Staphylococcus sp.; strain ATCC 29213): 4 µg/mL (≈ 2.73 µM)
MIC Staphylococcus aureus (GC 1131) (Staphylococcus sp.; strain GC 1131): 8 µg/mL (≈ 5.46 µM)
MIC Staphylococcus aureus (GC 3051) (Staphylococcus sp.; strain GC 3051): 8 µg/mL (≈ 5.46 µM)
MIC Staphylococcus aureus (GC 3053) (Staphylococcus sp.; strain GC 3053): 8 µg/mL (≈ 5.46 µM)
MIC Staphylococcus aureus (GC 4541) (Staphylococcus sp.; strain GC 4541): 4 µg/mL (≈ 2.73 µM)
MIC Staphylococcus aureus (GC 4542) (Staphylococcus sp.; strain GC 4542): 4 µg/mL (≈ 2.73 µM)
MIC Staphylococcus aureus-SMITH (GC 4543) (Staphylococcus sp.; strain GC 4543): 4 µg/mL (≈ 2.73 µM)
MIC Staphylococcus aureus (GC 4544) (Staphylococcus sp.; strain GC 4544): 8 µg/mL (≈ 5.46 µM)
MIC Staphylococcus aureus (GC 4545) (Staphylococcus sp.; strain GC 4545): 4 µg/mL (≈ 2.73 µM)
MIC Coagulase Negative Staphylococcus (GC 4547) (Staphylococcus sp.; strain GC 4547): 4 µg/mL (≈ 2.73 µM)
MIC Coagulase Negative Staphylococcus (GC 4548) (Staphylococcus sp.; strain GC 4548): 2 µg/mL (≈ 1.37 µM)
MIC Coagulase Negative Staphylococcus (GC 4549) (Staphylococcus sp.; strain GC 4549): 2 µg/mL (≈ 1.37 µM)
MIC Coagulase Negative Staphylococcus (GC 4551) (Staphylococcus sp.; strain GC 4551): 8 µg/mL (≈ 5.46 µM)
MIC Coagulase Negative Staphylococcus (GC 6257) (Staphylococcus sp.; strain GC 6257): 2 µg/mL (≈ 1.37 µM)
MIC Enterococcus avium (GC 4558) (Enterococcus sp.; [1]): 16 µg/mL (≈ 10.9 µM)
MIC Enterococcus faecalis (ATCC 29212) (Enterococcus sp.; [1]): 16 µg/mL (≈ 10.9 µM)
MIC Enterococcus faecalis (GC 4552) (Enterococcus sp.; [1]): 16 µg/mL (≈ 10.9 µM)
MIC Enterococcus faecalis (GC 4553) (Enterococcus sp.; [1]): 16 µg/mL (≈ 10.9 µM)
MIC Enterococcus faecalis (GC 4554) (Enterococcus sp.; [1]): 16 µg/mL (≈ 10.9 µM)
MIC Enterococcus faecalis (GC 6189) (Enterococcus sp.; [1]): 16 µg/mL (≈ 10.9 µM)
MIC Enterococcus faecium (GC 2243) (Enterococcus sp.; [1]): 16 µg/mL (≈ 10.9 µM)
MIC Enterococcus faecium (GC 4556) (Enterococcus sp.; [1]): 16 µg/mL (≈ 10.9 µM)
MIC Enterococcus faecium (GC 4557) (Enterococcus sp.; [1]): 8 µg/mL (≈ 5.46 µM)
MIC Enterococcus faecalis (ATCC 29212) (Enterococcus sp.; strain ATCC 29212): 16 µg/mL (≈ 10.9 µM)
MIC Enterococcus faecalis (GC 2242) (Enterococcus sp.; strain GC 2242): 16 µg/mL (≈ 10.9 µM)
MIC Enterococcus faecium (GC 2243) (Enterococcus sp.; strain GC 2243): 16 µg/mL (≈ 10.9 µM)
MIC Enterococcus faecalis (GC 2691) (Enterococcus sp.; strain GC 2691): 16 µg/mL (≈ 10.9 µM)
MIC Enterococcus faecalis (GC 3059) (Enterococcus sp.; strain GC 3059): 16 µg/mL (≈ 10.9 µM)
MIC Enterococcus faecalis (GC 4552) (Enterococcus sp.; strain GC 4552): 16 µg/mL (≈ 10.9 µM)
MIC Enterococcus faecalis (GC 4553) (Enterococcus sp.; strain GC 4553): 16 µg/mL (≈ 10.9 µM)
MIC Enterococcus faecalis (GC 4554) (Enterococcus sp.; strain GC 4554): 16 µg/mL (≈ 10.9 µM)
MIC Enterococcus faecium (GC 4556) (Enterococcus sp.; strain GC 4556): 16 µg/mL (≈ 10.9 µM)
MIC Enterococcus faecium (GC 4557) (Enterococcus sp.; strain GC 4557): 8 µg/mL (≈ 5.46 µM)
MIC Enterococcus avium (GC 4558) (Enterococcus sp.; strain GC 4558): 16 µg/mL (≈ 10.9 µM)
MIC Enterococcus faecalis (GC 6189) (Enterococcus sp.; strain GC 6189): 16 µg/mL (≈ 10.9 µM)
MIC Escherichia coli (ATCC 25922) (Escherichia coli; strain ATCC 25922): >64 µg/mL
MIC Escherichia coli (GC 4559) (Escherichia coli; strain GC 4559): >64 µg/mL
MIC Escherichi coli (GC 4560) (Escherichia coli; strain GC 4560): 2 µg/mL (≈ 1.37 µM)
MIC Streptococcus pneumoniae (ATCC 6301) (Streptococcus sp.; strain ATCC 6301): 0.5 µg/mL (≈ 0.341 µM)
MIC Streptococcus pneumoniae (GC 1894) (Streptococcus sp.; strain GC 1894): 0.12 µg/mL (≈ 0.0819 µM)
MIC Streptococcus pyogenes (GC 4563) (Streptococcus sp.; strain GC 4563): 1 µg/mL (≈ 0.683 µM)
MIC Streptococcus agalactiae (GC 4564) (Streptococcus sp.; strain GC 4564): 1 µg/mL (≈ 0.683 µM)
MIC Streptococcus pneumoniae (GC 4565) (Streptococcus sp.; strain GC 4565): 0.5 µg/mL (≈ 0.341 µM)
SMILES: CC(=O)n1cc(C2OCC3OC(OC4C(CO)OC(Oc5ccc(CC6NC(=O)C(C(C)c7ccccc7)NC(=O)CNC(=O)C(CO)NC(=O)C(C(O)C7CNC(=N)N7C7OC(CO)C(O)C(O)C7O)NC(=O)C(C(O)C7CNC(=N)N7)NC6=O)cc5)C(O)C4O)C(O)C(O)C3O2)c2ccccc21 (stereo not drawn) [Example 161, Cyclo[glycyl-β-methylphenylalanyl-O-[4-O-[4,6-O-[1-(acetylindol-3-yl)methylene]hexopyranosyl]hexopyranosyl]tyrosyl-3-(2-iminoimidazolidin-4-yl)seryl-3-(3-hexopyranosyl-2-iminoimidazolidin-4-yl)serylseryl]]
MIC Staphylococcus haemolyticus (GC 4546) (Staphylococcus sp.; 5×10^5 CFU/mL): 4 µg/mL (≈ 2.73 µM)
MIC Staphylococcus haemolyticus (GC 4546) (Staphylococcus sp.; strain GC 4546): 4 µg/mL (≈ 2.73 µM)
